Results: US20210015944A1, “Targeted Doxorubicin-Gold Nanocojugates for Tumor Therapy” (The Curators of the University of Missouri, priority 2017, published 2021)
In brackets after ≈: the same amount, converted by molar mass. Where two headings read alike, the source gives them in different places.

Legend:
[1] = test system: MDA-MB-231 human breast cancer cells; assay: In vitro cytotoxicity MTT assay, non-GRP expressing cells; type: cell-based; settings: MDA-MB231 cells; for IC50: Homo sapiens, MDA-MB-231
Procedure: (§1) Cell culture: PC-3 human prostate and MDA-MB231 human breast carcinoma cells (ATCC, USA) were grown in RPMI 1640 medium (obtained from Gibco BRL, Grand Island, N.Y.) supplemented with 4.5 g/L D-glucose, 25 mM Hepes, 0.11 g/L sodium pyruvate, 1.5 g/L sodiumbicarbonate, 2 mM L-glutamine, 10% heat-inactivated fetal bovine serum (Atlanta Biologicals, USA) and 1% penicillin/streptomycin antibitiotic solution. Cells were cultured in a humidified atmosphere of 95% air and 5% CO2 at 37° C. (Thermo Scientific, USA), with the medium changed every other day. The cells were adherent in monolayers and when confluent were harvested from the cell culture flasks with trypsin—EDTA (Invitrogen) and seeded further apart.
In vitro Cytotoxicity Assay: In vitro cytotoxicity evaluation of NP1-DOX and NP2-DOX with respective controls such as NP1, NP2, free doxorubicin was performed on GRP expressing and non-expressing cancer cells, PC3 and MDA-MB-231, respectively. The cytotoxicity evaluation was performed in triplicates and the protocol was followed as described by the manufacturer. Briefly, 1×10^5 ml^−1 cells at the exponential growth phase were placed in a flat bottom 96-well polystyrene-coated plate and were incubated for 12 hour in a CO2 incubator at 5% CO2 and 37° C. A series of concentrations ranging from 0 to 10 ug/mL (0, 0.31, 0.625, 1.25, 2.5, 5.0 and 10 μg/mL) of NP1-Dox and NP2-Dox was prepared in the medium. Each concentration was added to the plate in quadruplets. After 24 hour incubation, 10 μL per well MTT (as received from the manufacturer, Promega Corporation, USA) was added and kept for 4 hours, and the formazan crystals so formed were dissolved in 100 μL detergent/solubilizing buffer. The plates were kept for 2 hours in dark at 25° C. to dissolve all crystals, and the intensity of developed color was measured by micro plate reader (Epoch, BioTek, USA) operating at 570 nm wavelength. Wells with complete medium, nanoparticles, and MTT, but without cells, were used as blanks. Untreated cells were considered 100% viable. […]

[2] = test system: PC3 human prostate cancer cells; assay: In vitro cytotoxicity MTT assay, GRP expressing cells; type: cell-based; settings: PC-3, 24 hour incubation, based on total weight of nanoconjugate, read-out: IC50, Nanoconjugate Conc.
Procedure: as §1
In vitro Cytotoxicity Assay: In vitro cytotoxicity evaluation of NP1-DOX and NP2-DOX with respective controls such as NP1, NP2, free doxorubicin was performed on GRP expressing and non-expressing cancer cells, PC3 and MDA-MB-231, respectively. The cytotoxicity evaluation was performed in triplicates and the protocol was followed as described by the manufacturer. […] The plates were kept for 2 hours in dark at 25° C. to dissolve all crystals, and the intensity of developed color was measured by micro plate reader (Epoch, BioTek, USA) operating at 570 nm wavelength. […]

COc1cccc2c1C(=O)c1c(O)c3c(c(O)c1C2=O)C[C@@](O)(C(=O)CO)C[C@@H]3O[C@H]1C[C@H](N)[C@H](O)[C@H](C)O1 [Doxorubicin] was tested, and the IC50 ([1]; 24 hour incubation, MTT, based on total weight of nanoconjugate, read-out: IC50, Nanoconjugate Conc.) was > 10 µg/mL, the IC50 ([1]; in terms of doxorubicin loaded (0.53 μg/mg NP1-DOX, 0.3 μg/mg NP2-DOX), read-out: IC50, Doxorubicin Conc.) was > 10 µg/mL and the “IC50, Nanoconjugate Conc.” value ([1]; 24 hour incubation, MTT, based on total weight of nanoconjugate) was >10 µg/mL. It also gave an IC50 [2] of 9.5 µg/mL (≈ 17.5 µM).
